Measurements as given in patent publication US11884750B2, “Cationic cell penetrating peptides and the use thereof” (CELLTROY CO., LTD., priority 2021, dated 2024).
Entries after “also recorded” stand apart in the source; their conditions may differ.

Key:
HaCAT cells = assay: Cell penetration efficiency in human epidermal (skin) cells, 4 μM, flow cytometry; assay type: cell-based; details: 4 μM FITC-conjugated CPP, one hour
Experimental: The cell penetration efficiency of the cationic CPPs selected in Example 1 was evaluated using human epidermal cells. In further detail, HaCAT cells, which is a human epidermal cell line, were seeded in 24-well plates to have a cell density of 1×10^7 cells/well, and cultured in 10% FBS-added DMEM under conditions of 37° C. and 5% CO2 for 24 hours. Subsequently, the cells were treated 4 μM each of the FITC-conjugated CPP or FITC-conjugated TAT, and incubated for one hour. After the termination of the incubation, the cells were transferred to a sterile tube using 0.25% trypsin, and the medium was removed through centrifugation. Afterward, the cells were washed with 500 μL of D-PBS twice to completely remove the medium, and finally, resuspended in 400 μL of D-PBS and intracellular fluorescence was measured by flow cytometry (FACSCanto II).
(§1) To evaluate the cell penetration efficiency of the additionally selected cationic CPPs, an experiment was conducted using human epidermal cells or human neuroblastoma cells. In further detail, HaCAT cells, which is a human epidermal cell line, or SH-SYSY cells, which is a human neuroblastoma cell line, were seeded in 24-well plates to have a cell density of 1×10^7 cells/well and cultured in 10% FBS-added DMEM under conditions of 37° C. and 5% CO2 for 24 hours. In addition, the cells were treated with 4 μM each of FITC-conjugated peptides and FITC-conjugated TAT for one hour. After the completion of the culture, the cells were transferred to a sterile tube using 0.25% trypsin and centrifuged to remove the medium. Afterward, the cells were washed with 500 μL of D-PBS twice to completely remove the medium, and finally, resuspended in 400 μL of D-PBS and intracellular fluorescence was measured by flow cytometry (FACSCanto II).
(§2) Subsequently, to confirm whether the CPPs according to the present invention show excellent cell permeability into different types of cells/tissues, various tissue-derived cells were treated with biologically active molecule-conjugated CPPs to compare its delivery capacity with TAT. As in the previous examples, each cell was aliquoted in a plate at an appropriate density, and cultured in a 10% FBS-added medium under a condition of 37° C. and 5% CO2 for 24 hours. Subsequently, the cells were treated with 4 μM each of FITC-conjugated CPP or FITC-conjugated TAT and incubated for one hour. After the completion of the incubation, the cells were transferred to a sterile tube using 0.25% trypsin and centrifuged to remove the medium. Afterward, the cells were washed with 500 μL of D-PBS twice to completely remove the medium, and finally, resuspended in 400 μL of D-PBS and intracellular fluorescence was measured by flow cytometry (FACSCanto II).

SH-SY5Y cells = assay: Cell penetration efficiency in human neuroblastoma cells, 4 μM, flow cytometry; assay type: cell-based; details: one hour; for cell permeability compared with TAT: 4 μM FITC-conjugated CPP, flow cytometry; for Score / Score/TAT: 4 μM FITC-conjugated peptide; for Score: intracellular fluorescence by flow cytometry; for Score/TAT: ratio to FITC-conjugated TAT
Experimental: The cell penetration efficiency of the cationic CPPs selected in Example 1 was evaluated in neuroblastoma. In further detail, SH-SYSY cells, which is a human neuroblastoma cell line, were seeded in 24-well plates to have a cell density of 1×10^7 cells/well, and cultured in 10% FBS-added DMEM under conditions of 37° C. and 5% CO2 for 24 hours. In addition, the cells were treated with 4 μM each of FITC-conjugated CPPs (C12, C14, C16, C31, C52, and C67), or FITC-conjugated TAT, and incubated for one hour. After the termination of the incubation, the cells were transferred to a sterile tube using 0.25% trypsin and centrifuged to remove the medium. Afterward, the cells were washed with 500 μL of D-PBS twice to completely remove the medium, and finally, resuspended in 400 μL of D-PBS and intracellular fluorescence was measured by flow cytometry (FACSCanto II).
as §1, §2

monocytes = assay: Cell penetration efficiency using monocytes; assay type: cell-based; details: 4 μM FITC-conjugated CPP, one hour
Experimental: as §2

HGB cell line = assay: Cell penetration efficiency in glioblastoma cells; assay type: cell-based, human; details: 4 μM FITC-conjugated CPP, one hour
Experimental: as §2

HDF cell line = assay: Cell penetration efficiency in skin cells (HDF); assay type: cell-based; details: 4 μM FITC-conjugated CPP, one hour
Experimental: as §2

HeLa cell line = assay: Cell penetration efficiency using cervical cancer cells; assay type: cell-based; details: 4 μM FITC-conjugated CPP, one hour
Experimental: as §2

HT1080 cell line = assay: Cell penetration efficiency using connective tissue (fibrosarcoma) cells; assay type: cell-based; details: 4 μM FITC-conjugated CPP, one hour
Experimental: as §2

HepG2 cell line = assay: Cell penetration efficiency using liver cells; assay type: cell-based; details: 4 μM FITC-conjugated CPP, one hour
Experimental: as §2

HEK293T cell line = assay: Cell penetration efficiency using kidney cells; assay type: cell-based; details: 4 μM FITC-conjugated CPP, one hour
Experimental: as §2

A-427 cell line = assay: Cell penetration efficiency using lung cells; assay type: cell-based; details: A-427 lung cells, 4 μM FITC-conjugated CPP, one hour
Experimental: as §2

SNU-46 cell line = assay: Cell penetration efficiency using laryngeal cells; assay type: cell-based; details: SNU-46 laryngeal cells, 4 μM FITC-conjugated CPP, one hour
Experimental: as §2

macrophages = assay: Cell penetration efficiency using macrophages; assay type: cell-based; details: macrophages differentiated from THP1 cells, 4 μM FITC-conjugated CPP, one hour
Experimental: as §2, with “II). Macrophages were used by inducing differentiation from THP1 cells. Specifically, the THP-1 cells were aliquoted on a cover glass laid on a 24-well plate to have a density of 6×10^4 cells/well, and after the addition of 100 ng/mL of phorbol 12-myristate 13-acetate (PMA), the cells were incubated for 48 hours to induce the differentiation into macrophages. After 48 hours, the cells were washed with Dulbecco's phosphate buffered saline (DPBS) to perform an experiment.” for “II).”

Row | Sequence | cell permeability compared with TAT (HaCAT cells) | cell permeability compared with TAT (SH-SY5Y cells) | Score (SH-SY5Y cells) | Score/TAT (SH-SY5Y cells) | cell permeability compared with TAT (monocytes) | cell permeability compared with TAT (HGB cell line) | cell permeability compared with TAT (HDF cell line) | cell permeability compared with TAT (HeLa cell line) | cell permeability compared with TAT (HT1080 cell line) | cell permeability compared with TAT (HepG2 cell line) | cell permeability compared with TAT (HEK293T cell line) | cell permeability compared with TAT (A-427 cell line) | cell permeability compared with TAT (SNU-46 cell line) | cell permeability compared with TAT (macrophages)
1 | ARLRVILRRRNPKR [C93] | higher cell permeability | higher cell permeability | 1798 | 3.464 | higher cell permeability | higher cell permeability | higher cell permeability | higher cell permeability | higher cell permeability | higher cell permeability | higher cell permeability | higher cell permeability | higher cell permeability | –
2 | IPLRRLMRRARRHR [C112] | higher cell permeability | higher cell permeability | 946 | 1.823 | higher cell permeability | higher cell permeability | higher cell permeability | higher cell permeability | – | higher cell permeability | – | – | higher cell permeability | higher cell permeability
3 | IRAKKKKRRRKKKP [C31] | increased cell permeability; also recorded: higher cell permeability | higher cell permeability | 998 | 1.923 | – | – | higher cell permeability | higher cell permeability | higher cell permeability | higher cell permeability | higher cell permeability | higher cell permeability | higher cell permeability | higher cell permeability
4 | KPRKKKKKRKNKKI [C12] | increased cell permeability | higher cell permeability | 2062 | 3.973 | – | higher cell permeability | higher cell permeability | higher cell permeability | higher cell permeability | higher cell permeability | higher cell permeability | higher cell permeability | higher cell permeability | higher cell permeability
5 | MPKIRKLKRRKKFR [C79] | higher cell permeability | higher cell permeability | 863 | 1.663 | higher cell permeability | higher cell permeability | higher cell permeability | higher cell permeability | higher cell permeability | higher cell permeability | – | – | higher cell permeability | –
6 | RPRRKKQIKRLCKR [C16] | increased cell permeability; also recorded: higher cell permeability | higher cell permeability | 1680 | 3.237 | – | higher cell permeability | higher cell permeability | higher cell permeability | higher cell permeability | higher cell permeability | higher cell permeability | higher cell permeability | higher cell permeability | higher cell permeability
7 | SRRRLRRFLRRIAP [C185] | higher cell permeability | higher cell permeability | 1684 | 3.245 | higher cell permeability | higher cell permeability | higher cell permeability | higher cell permeability | – | higher cell permeability | higher cell permeability | – | higher cell permeability | higher cell permeability
8 | TKRRKRRLRRRLTP [C52] | increased cell permeability; also recorded: higher cell permeability | higher cell permeability | 1328 | 2.559 | – | – | higher cell permeability | higher cell permeability | higher cell permeability | higher cell permeability | higher cell permeability | higher cell permeability | higher cell permeability | higher cell permeability
